Measured values as given in the supplement of paper PMC10627819.

What was measured:
[1] = test system: S. aureus Newman; test: Bliss interaction score (quartile over a dose matrix) (fitness difference); higher = more antagonism (negative = synergy)
In short: (§1)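 At entry into stationary phase, OD595 was recorded and divided by the robust mean of the no-drug wells on that plate, with any value above 1 set to 1. This gives the fitness measure used throughout. Single-drug fitness was inferred from combination data, and the Bliss score, observed minus product-expected fitness, is shown as quartiles across technical, biological and donor/recipient replicates.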

[2] = test system: B. subtilis 168; test: as above
In short: as §1

[3] = test system: S. aureus DSM 20231; test: as above
In short: as §1

[4] = test system: S. pneumoniae D39V; test: as above
In short: as §1

[5] = test system: B. subtilis 168; test: fitness (endpoint OD595 vs no drug) (fraction); higher = more growth
In short: (§2)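 Volumes were 30 µl per well, or 55 µl for S. pneumoniae, in 384-well plates inoculated at OD595 0.01. Media were TSB, LB Lennox or CY at 37 °C, and OD595 was read every 30 min for 14 h with first-reading background subtraction. Fitness is the ratio of optical density at stationary-phase entry to the robust mean of no-drug controls. That ratio is capped at 1.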

[6] = test system: S. pneumoniae D39V; test: as above
In short: as §2
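Wherever Bliss interaction score (quartile over a dose matrix) is given: first quartile when negative (synergy) and third quartile when positive (antagonism).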

CCCCCCCCCC(=O)N[C@@H](Cc1c[nH]c2ccccc12)C(=O)N[C@H](CC(N)=O)C(=O)N[C@@H](CC(=O)O)C(=O)N[C@@H]1C(=O)NCC(=O)N[C@@H](CCCN)C(=O)N[C@@H](CC(=O)O)C(=O)N[C@H](C)C(=O)N[C@@H](CC(=O)O)C(=O)NCC(=O)N[C@H](CO)C(=O)N[C@@H]([C@H](C)CC(=O)O)C(=O)N[C@@H](CC(=O)c2ccccc2N)C(=O)O[C@@H]1C [Daptomycin] + C[C@H]1c2cccc(O)c2C(=O)C2=C(O)[C@]3(O)C(=O)C(C(N)=O)=C(O)[C@@H](N(C)C)[C@@H]3[C@@H](O)[C@@H]21 [Doxycycline]
Conditions	Bliss interaction score
[1]	0.0504
[2]	0.0559
[3]	0.0825
[4]	-0.249

Conditions	fitness
[5], first compound 0.125 µg/mL, partner 0.02 µg/mL	0.857
[5], first compound 0.125 µg/mL, partner 0.04 µg/mL	0.794
[5], first compound 0.125 µg/mL, partner 0.08 µg/mL	0.605
[5], first compound 0.25 µg/mL, partner 0.02 µg/mL	0.871
[5], first compound 0.25 µg/mL, partner 0.04 µg/mL	0.757
[5], first compound 0.25 µg/mL, partner 0.08 µg/mL	0.595
[5], first compound 0.5 µg/mL, partner 0.02 µg/mL	0.83
[5], first compound 0.5 µg/mL, partner 0.04 µg/mL	0.771
[6], first compound 1 µg/mL, partner 0.0155 µg/mL	0.733
[6], first compound 2 µg/mL, partner 0.0155 µg/mL	0.738
[6], first compound 4 µg/mL, partner 0.0155 µg/mL	0.795

fitness, one replicate
Conditions	first compound 1 µg/mL	first compound 2 µg/mL	first compound 4 µg/mL
[5], partner 0.02 µg/mL	0.624	–	–
[5], partner 0.04 µg/mL	0.641	–	–
[5], partner 0.08 µg/mL	0.188	–	–
[6], partner 0.003875 µg/mL	0.928	0.934	0.981
[6], partner 0.00775 µg/mL	0.866	0.878	0.927

C[C@H]1COc2c(N3CCN(C)CC3)c(F)cc3c(=O)c(C(=O)O)cn1c23 [Levofloxacin] + CC1=C\[C@@H](O)CC(=O)Cc2nc(co2)C(=O)N2CCC=C2C(=O)O[C@H](C(C)C)[C@H](C)/C=C/C(=O)NC\C=C\1 [Virginiamycin M1]
Conditions	Bliss interaction score
[1]	-0.0223
[2]	0.0195
[3]	-0.0827
[4]	0.0593

fitness, one replicate
Conditions	partner 0.0625 µg/mL	partner 0.125 µg/mL	partner 0.15 µg/mL	partner 0.25 µg/mL	partner 0.3 µg/mL	partner 0.5 µg/mL	partner 1 µg/mL
[5], first compound 0.001 µg/mL	0.869	0.947	–	0.969	–	–	–
[5], first compound 0.002 µg/mL	0.949	0.971	–	0.936	–	–	–
[5], first compound 0.0039 µg/mL	0.887	0.918	–	0.904	–	–	–
[6], first compound 0.2 µg/mL	–	–	0.954	–	0.876	0.925	0.937
[6], first compound 0.4 µg/mL	–	–	0.921	–	0.913	0.834	0.832
[6], first compound 0.8 µg/mL	–	–	0.829	–	0.797	0.539	0.391

Conditions	fitness
[5], first compound 0.0312 µg/mL, partner 0.0625 µg/mL	0.0334
[5], first compound 0.0312 µg/mL, partner 0.125 µg/mL	0.0383
[5], first compound 0.0312 µg/mL, partner 0.25 µg/mL	0.0414
[5], first compound 0.0625 µg/mL, partner 0.0625 µg/mL	0.0348
[5], first compound 0.0625 µg/mL, partner 0.125 µg/mL	0.0328
[5], first compound 0.0625 µg/mL, partner 0.25 µg/mL	0.0437
[5], first compound 0.125 µg/mL, partner 0.0625 µg/mL	0.0353
[5], first compound 0.125 µg/mL, partner 0.125 µg/mL	0.0443
[5], first compound 0.125 µg/mL, partner 0.25 µg/mL	0.0489
[6], first compound 0.1725 µg/mL, partner 0.5 µg/mL	0.998
[6], first compound 0.1725 µg/mL, partner 1 µg/mL	0.992
[6], first compound 0.1725 µg/mL, partner 2 µg/mL	0.969
[6], first compound 0.2 µg/mL, partner 2 µg/mL	0.896
[6], first compound 0.345 µg/mL, partner 0.5 µg/mL	0.92
[6], first compound 0.345 µg/mL, partner 1 µg/mL	0.904
[6], first compound 0.345 µg/mL, partner 2 µg/mL	0.9
[6], first compound 0.4 µg/mL, partner 2 µg/mL	0.817
[6], first compound 0.69 µg/mL, partner 0.5 µg/mL	0.539
[6], first compound 0.69 µg/mL, partner 1 µg/mL	0.464
[6], first compound 0.69 µg/mL, partner 2 µg/mL	0.458
[6], first compound 0.8 µg/mL, partner 2 µg/mL	0.567

C[C@H]1COc2c(N3CCN(C)CC3)c(F)cc3c(=O)c(C(=O)O)cn1c23 [Levofloxacin] + CC(=O)NC[C@H]1CN(c2ccc(N3CCOCC3)c(F)c2)C(=O)O1 [Linezolid]
Conditions	Bliss interaction score
[1]	0.0972
[2]	0.0633
[3]	0.0666
[4]	0.0612

fitness, [5], one replicate
Conditions	first compound 0.001 µg/mL	first compound 0.002 µg/mL	first compound 0.0039 µg/mL	first compound 0.0078 µg/mL
partner 0.0625 µg/mL	–	0.886	0.846	0.862
partner 0.125 µg/mL	0.82	–	–	0.615
partner 0.25 µg/mL	0.66	–	–	0.0853
partner 0.5 µg/mL	0.0709	0.0326	0.0626	–

Conditions	fitness
[5], first compound 0.002 µg/mL, partner 0.125 µg/mL	0.696
[5], first compound 0.0039 µg/mL, partner 0.125 µg/mL	0.683
[5], first compound 0.0312 µg/mL, partner 0.125 µg/mL	0.0311
[5], first compound 0.0312 µg/mL, partner 0.25 µg/mL	0.0424
[5], first compound 0.0312 µg/mL, partner 0.5 µg/mL	0.045
[5], first compound 0.0625 µg/mL, partner 0.125 µg/mL	0.0397
[5], first compound 0.0625 µg/mL, partner 0.25 µg/mL	0.0517
[5], first compound 0.0625 µg/mL, partner 0.5 µg/mL	0.0516
[5], first compound 0.125 µg/mL, partner 0.125 µg/mL	0.0523
[5], first compound 0.125 µg/mL, partner 0.25 µg/mL	0.0524
[5], first compound 0.125 µg/mL, partner 0.5 µg/mL	0.0424
[6], first compound 0.1725 µg/mL, partner 0.2 µg/mL	0.848
[6], first compound 0.1725 µg/mL, partner 0.4 µg/mL	0.669
[6], first compound 0.1725 µg/mL, partner 0.8 µg/mL	0.333
[6], first compound 0.2 µg/mL, partner 0.105 µg/mL	0.81
[6], first compound 0.2 µg/mL, partner 0.21 µg/mL	0.694
[6], first compound 0.2 µg/mL, partner 0.42 µg/mL	0.568
[6], first compound 0.345 µg/mL, partner 0.2 µg/mL	0.777
[6], first compound 0.345 µg/mL, partner 0.4 µg/mL	0.591
[6], first compound 0.345 µg/mL, partner 0.8 µg/mL	0.295
[6], first compound 0.4 µg/mL, partner 0.105 µg/mL	0.72
[6], first compound 0.4 µg/mL, partner 0.21 µg/mL	0.652
[6], first compound 0.4 µg/mL, partner 0.42 µg/mL	0.506
[6], first compound 0.69 µg/mL, partner 0.2 µg/mL	0.555
[6], first compound 0.69 µg/mL, partner 0.4 µg/mL	0.323
[6], first compound 0.69 µg/mL, partner 0.8 µg/mL	0.196
[6], first compound 0.8 µg/mL, partner 0.105 µg/mL	0.449
[6], first compound 0.8 µg/mL, partner 0.21 µg/mL	0.351
[6], first compound 0.8 µg/mL, partner 0.42 µg/mL	0.284
